According to US20260000632A1, “STRUCTURALLY MODIFIED FATTY ACIDS FOR IMPROVING GLYCEMIC CONTROL AND TREATING INFLAMMATORY BOWEL DISEASE” (Northsea Therapeutics B.V., priority 2018, published 2026):
Where “and” joins values, the source holds several entries; their conditions need not be identical. Equal values may be shown once.

How the values were obtained:
[1] = tested on: IL6, IL1b, S100A8, TNFα, Reg3g, IL17a mRNA; test: Colonic mRNA levels of cytokines and biomarkers by real-time PCR in DSS-induced colitis mice; format: in vivo, mouse; conditions: 126 and 252 mg/kg per day, relative to HPRT
Protocol: (§1) The C56BL/6J mouse is a strain susceptible to DSS-induced colitis. To evaluate the efficacy and dosage of Compound B in treatment of DSS-induced colitis, inflammation was induced in 30 9-week old C56BL/6J mice by adding 1.5% DSS to the drinking water for 7 days. The mice were fed a standard chow diet that consisted of 30 weight percent wheat. The mice were divided into three groups of 10, and for each day of DSS administration each group was administered via oral gavage either (1) 100 μL corn oil per day (Control), (2) 126 mg/kg Compound B (dissolved in 100 μL corn oil) per day (“Compound B-Low” or “Compound B-L”), or (3) 252 mg/kg Compound B (dissolved in 100 μL corn oil) per day (“Compound B-High” or “Compound B-H”). Following the 7-day period of DSS induction, mice were sacrificed and their intestinal tissue was used for histopathological and gene expression analysis.
To evaluate the effect of treatment with Compound B on the levels of proinflammatory cytokines and biomarkers, total RNA was extracted from small and large intestinal tissue samples (>100 mg). cDNA was synthesized by reverse transcription and analyzed by real-time PCR. Results were normalized to the level of the housekeeping gene hypoxanthine guanine phosphoribosyltransferase (HPRT). The relative mRNA expression of the tested gene relative to HPRT expression was calculated using the 2^−ΔΔCt method as described in Pickert et al., J. Exp. Med., 2009, 206:1465-1472. Interleukin 6 (IL6), IL1b, calgranulin-A (S100A8), and tumor necrosis factor α (TNFα) have been implicated as mediators of IBD, including both ulcerative colitis and Crohn's disease. IL6, IL1b, and calgranulin-A are prominently expressed in inflammatory macrophages. IL22-dependent regenerating islet-derived 3 gamma (Reg3g) is induced in response to inflammation in epithelial cells. IL17 is secreted by Th17 T helper cells and innate lymphoid cells type 3 (ILC3).

[2] = tested on: DSS-induced colitis C56BL/6J mice; test: DSS-induced colitis mouse model (body weight, colon length, survival, histology); format: in vivo; conditions: for Difference in weight loss between control and treated group / Survival rate 7 days after colitis was induced: 1.5% DSS; for Survival rate 7 days after colitis was induced: C56BL/6J mice (control 50%)
Excerpt: The dextran sodium sulphate-induced (DSS)-induced colitis model is well known in the art as a reproducible chemical induction of intestinal inflammation animal model. See, e.g., Eichele et al., World J Gastroenterol, 2017, 23(33):6016-6029; Randhawa et al., Korean J. Physiol. Pharmacol. (2014) 18:279-288; Jurjus et al., J. Pharmacol. Toxicol., Methods, 2004, 50:81-92; Gaudio et al., Dig. Dis. Sci., 1999, 44:1458-1475. The DSS-induced colitis model morphologically and symptomatically resembles epithelial damage seen in human IBD, and thus has become the most extensively employed experimental model of intestinal inflammation. Okayasu et al., Gastroenterology, 1990, 98:694-702; Kawada et al., World J. Gastroenterol. 2007, 13:5581-5593. The DSS-induced colitis model is most similar to ulcerative colitis in humans, but also has many similarities to Crohn's disease.
DSS is a water soluble, negatively charged sulfated polysaccharide with a highly variable molecular weight ranging from 5 to 1400 kDa. Murine colitis results from administration of about 1% to 3% DSS to the drinking water of a mouse strain susceptible to DSS-induced colitis. Without being bound by theory, the sulfated polysaccharide may not directly induce intestinal inflammation, but may instead act as a direct chemical toxin to colonic epithelium resulting in epithelial cell injury. It is thought that DSS disrupts the intestinal epithelial monolayer lining, leading to the entry of luminal bacteria and associated antigens into the mucosa and allowing the dissemination of proinflammatory intestinal contents into underlying tissue. […] Perse et al., J. Biomed. Biotechnol., 2012:718617.
as §1
To assess the efficacy of Compound B in the treatment of DSS-induced colitis in mice, the body weight of mice was monitored. Weight loss is an indicator of colitis severity.
To assess the efficacy of Compound B in the treatment of DSS-induced colitis in mice, colon length of test mice was measured. Colon length correlates inversely with inflammation.
Histopathological analysis was performed on sections of formalin-fixed paraffin embedded tissue after hematoxylin and eosin (H&E) staining. Colonic samples were analyzed by histopathology for assignment of scores for colitis activity as described in Neurath et al., J. Exp. Med., 2002, 195:1129-1143. Briefly, the degrees of inflammation and epithelial and mucosal injury on microscopic cross-sections of the colon were graded semi-quantitatively from 0 to 4. For inflammation, a score of 0=no evidence for inflammation; 1=low level of inflammation with scattered infiltrating mononuclear cells (1-2 foci only); 2=moderate inflammation with multiple foci; 3=high level of inflammation with increased vascular density and marked wall thickening; and 4=maximal severity of inflammation with transmural leukocyte infiltration and loss of goblet cells. For injury, a score of 0=no epithelial injury; 1=occasional epithelial lesion; 2=1-2 foci of ulcerations; and 3=extensive ulcerations. […]

[3] = Excretion balance of radioactivity after single oral [14C]-Compound B; format: in vivo, rat; conditions: male albino rats, single oral [14C]-Compound B 50 mg/kg
Protocol: To assess Compound B clearance via urine versus feces, the excretion pattern of a single oral dose of [14C]-Compound B was determined in male albino rats. […] The total excretion of radioactivity following oral administration was >95% within the first 48 hours. Excretion via the urine accounted for 12% of the administered dose. […]

[4] = high dose, 252 mg/kg per day, 7 days 1.5% DSS

**Q.** Which results are given for `CC/C=C\C/C=C\C/C=C\C/C=C\C/C=C\CCCCSC(CC)(CC)C(=O)O` [Compound B, 2-ethyl-2-((5Z,8Z,11 Z,14Z,17Z)-icosa-5,8,11,14,17-pentaenylthio)butanoic acid]?
**A.** Expression of IL17a [1]: lack of change; mRNA levels of IL1b compared to untreated mice [1]: dose-dependent decrease; mRNA levels of IL6 compared to untreated mice [1]: dose-dependent decrease; mRNA levels of Reg3g compared to untreated mice [1]: dose-dependent decrease; mRNA levels of S100A8 compared to untreated mice [1]: dose-dependent decrease; mRNA levels of TNFα compared to untreated mice [1]: dose-dependent decrease; Difference in weight loss between control and treated group ([2]; 126 mg/kg per day (Compound B-Low) oral gavage, C56BL/6J mice): statistically significant after 7 days; Difference in weight loss between control and treated group ([2]; 252 mg/kg per day (Compound B-High) oral gavage, C56BL/6J mice): statistically significant after 6 days; Body weight loss compared to control ([2]; 126 and 252 mg/kg per day oral gavage, 7 days 1.5% DSS, C56BL/6J mice): dose-dependent reduction in weight loss; Histology of colon cross-sections in treated mice ([2]; 126 and 252 mg/kg per day, 7 days 1.5% DSS): dose-dependent attenuation of inflammatory infiltrates and edema; Colon length compared to control ([2]; both low (126 mg/kg) and high (252 mg/kg) doses per day, 7 days 1.5% DSS, C56BL/6J mice): significant increase in colon length; Survival rate 7 days after colitis was induced ([2]; high dose, 252 mg/kg per day oral gavage): 100%; Histological cross-sections of colon, morphology [2, 4]: almost complete rescue; Inflammation and epithelial and mucosal injury versus untreated mice [2, 4]: lower; Histological scores of colon versus untreated mice ([2]; high dose, 252 mg/kg per day, 7 days 1.5% DSS, H&E): significantly lower; Survival rate 7 days after colitis was induced ([2]; low dose, 126 mg/kg per day oral gavage): 90%; Total excretion of radioactivity within the first 48 hours [3]: > 95%; % Recovery of Administered Dose (Mean), Cage debris (0-168 h) ([3]; n = 3): 0.038%; % Recovery of Administered Dose (Mean), Carcass (168 h) ([3]; n = 3): 1.14%; % Recovery of Administered Dose (Mean), Faeces (0-168 h) ([3]; n = 3): 86% and 85.8%; % Recovery of Administered Dose (Mean), Mean total radioactivity (0-168 h) ([3]; n = 3): 101%; % Recovery of Administered Dose (Mean), Urine (0-168 h) ([3]; n = 3): 12% and 12.4%; % Recovery of Administered Dose (Mean), Cage wash (0-168 h) ([3]; n = 3, includes final cage wash): 1.27%
